Results taken from patent US8497083B2, “Fructosyl amino acid oxidase” (priority 2009, dated 2013).

Legend:
[1] = target: T1, fructosyl amino acid oxidase from Pichia sp. N1-1 (N1-1 FAOD, SEQ ID NO: 2) variant N47A (Pichia sp. N1-1, UniProt Q3L8U0, N47A); experiment: Dehydrogenase activity kinetics (mPMS/DCIP), N1-1 FAOD N47A mutant; type: biochemical; conditions: mPMS/DCIP over 4AA/TODB/POD
T1 construct: crude and purified
T1 sequence (Q3L8U0 1-427 N47A): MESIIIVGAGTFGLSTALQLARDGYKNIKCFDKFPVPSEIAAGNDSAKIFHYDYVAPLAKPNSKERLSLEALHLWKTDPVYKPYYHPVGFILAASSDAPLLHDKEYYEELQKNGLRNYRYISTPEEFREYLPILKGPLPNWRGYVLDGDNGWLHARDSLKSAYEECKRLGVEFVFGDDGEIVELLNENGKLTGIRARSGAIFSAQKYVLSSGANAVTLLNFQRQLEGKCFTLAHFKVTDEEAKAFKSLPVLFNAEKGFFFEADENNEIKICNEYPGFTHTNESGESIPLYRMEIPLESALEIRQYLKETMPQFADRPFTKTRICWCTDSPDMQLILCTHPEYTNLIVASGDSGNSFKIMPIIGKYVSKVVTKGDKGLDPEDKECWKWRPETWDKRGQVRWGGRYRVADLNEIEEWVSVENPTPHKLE
Excerpt: (§1) As used herein, “dehydrogenase activity” is an enzymatic activity (Vmax) of the fructosyl amino acid oxidase to catalyze oxidation of fructosyl amino acid to generate 2-keto-D-glucose and the corresponding amino acid while utilizing an electron mediator other than oxygen as an electron acceptor. The dehydrogenase activity may be assayed by measuring the amount of electrons transferred to the mediator using, for example, one of mPMS/DCIP (1-methoxy-5-methylphenazinium methylsulfate/2,6-dichloroindophenol), cPES (trifluoro-acetate-1-(3-carboxy-propoxy)-5-ethyl-phenanzinium, NA BM31—1144 (N,N-bis-(hydroxyethyl)-3-methoxynitrosoaniline hydrochloride, NA BM31—1008 (N,N-bis-hydroxyethyl-4-nitrosoaniline) and N—N-4-dimethyl-nitrosoaniline.
(§2) As used herein in the context of the relative or quantitative activity, the dehydrogenase activity is specifically defined to be the mole amount of the substrate (fructosyl amino acid) oxidized per unit time measured by the amount of electrons transferred to the mediator at 25° C. in 10 mM PPB (pH 7.0), 0.6 mM DCIP, and 6 mM methoxy PMS (mPMS).
Escherichia coli BL21 (DE3) cells harboring expression vectors of N1-1 FAOD (SEQ ID NO: 2) mutants were grown in 150 ml of LB medium containing 50 μg/ml kanamycin at 37° C. […] The formation of quinoneimine dye was measured spectrophotometrically at 546 nm. […]

[2] = target: fructosyl amino acid oxidase from Phaeosphaeria nodorum (PnFPOX, SEQ ID NO: 1) variant N56A (Parastagonospora nodorum, UniProt Q0UIL6, N56A); experiment: Dehydrogenase activity kinetics (mPMS/DCIP), PnFPOX N56A mutant; type: biochemical; conditions: purified enzyme, 25° C., pH 7.0
Sequence of fructosyl amino acid oxidase from Phaeosphaeria nodorum (PnFPOX, SEQ ID NO: 1) variant N56A (Q0UIL6 whole entry N56A): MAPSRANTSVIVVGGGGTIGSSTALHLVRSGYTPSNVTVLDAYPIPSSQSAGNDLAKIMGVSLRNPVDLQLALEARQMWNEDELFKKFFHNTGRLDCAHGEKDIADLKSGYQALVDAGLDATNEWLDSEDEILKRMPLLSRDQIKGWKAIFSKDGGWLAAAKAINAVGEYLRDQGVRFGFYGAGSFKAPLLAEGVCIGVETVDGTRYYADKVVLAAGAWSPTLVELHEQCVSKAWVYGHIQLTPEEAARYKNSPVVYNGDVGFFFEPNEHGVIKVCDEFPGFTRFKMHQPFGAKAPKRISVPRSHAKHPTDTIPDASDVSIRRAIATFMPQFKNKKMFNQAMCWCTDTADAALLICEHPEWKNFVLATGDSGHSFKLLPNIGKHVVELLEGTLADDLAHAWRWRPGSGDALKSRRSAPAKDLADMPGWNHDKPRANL
Excerpt: as §1, §2
Escherichia coli BL21 (DE3) cells harboring expression vectors of N1-1 FAOD (SEQ ID NO: 2) mutants were grown in 150 ml of LB medium containing 50 μg/ml kanamycin at 37° C. After reaching an A660 value of 0.6, 0.3 mM IPTG was added and incubated at 25° C. for an additional 5 hours. The cells were collected by centrifugation and washed twice with 0.85% NaCl.aq. Then, the cells were resuspended in 10 mM Potassium Phosphate Buffer (PPB) pH 7.0 and lysed by ultrasonic homogenizer. The lysate was centrifuged at 10,000×g, 4° C. for 10 min, and the supernatant was centrifuged at 50,000 rpm, 4° C. for 60 min, then the supernatant was dialyzed against 10 mM PPB (pH 7.0). The oxidase activity was assayed at 25° C. in 10 mM PPB, pH 7.0, 1.5 mM TODB, 2 U/ml horseradish peroxidase (POD), and 1.5 mM 4-aminoantipyrine (4AA) in the presence of substrates (0.2, 0.5, 0.75, 1, 2, 5 mM f-^αVal […]). The formation of quinoneimine dye was measured spectrophotometrically at 546 nm. The dehydrogenase activity was assayed at 25° C. in 10 mM PPB (pH 7.0), 0.6 mM DCIP, and 6 mM methoxy PMS (mPMS) in the presence of substrates (0.2, 0.5, 1, 2, 5 mM f-^αVal or 5 mM f-^αVal-His).
Mutations were introduced using site-directed mutagenesis as in Example 1, and BL21 (DE3) cells were transformed with an expression vector containing wild-type or mutant PnFPOX (SEQ ID NO: 1). The cultured cells were resuspended in 10 mM PPB, pH 7.0, and lysed by sonication. The lysate was centrifuged at 10,000 g at 4° C. for 20 min, and the supernatant was centrifuged at 50,000 rpm at 4° C. for 60 min. The oxidase and dehydrogenase activities were measured as in Example 1. […]

CC(C)[C@H](NCC1(O)OC[C@@H](O)[C@@H](O)[C@@H]1O)C(=O)O (stereo partly drawn) [f-αVal, fructosyl valine]
B/A (Vmax dehydrogenase/Vmax oxidase) ([1]; crude preparation): 7.5
B/A (Vmax dehydrogenase/Vmax oxidase) ([1]; purified enzyme): 4.3
Vmax [2]: 95.1 U/mg
